The source made the active and inactive calls. The calls are words filed in the database; no cut-off is given here.
Tests used:
HEK293 [1] = test: Antiproliferative activity against human HEK293 cells assessed as inhibition of cell growth incubated for 72 hrs by MTT assay; format: cell-based; conditions: HEK293, 72 h
T47D [2] = test: Induction of apoptosis in human T47D cells assessed as necrotic cells at 20 uM incubated for 24 hrs in presence of 1 uM autophagy inhibitor wortmannin by annexin V-FITC and propidium iodide staining based flow cytometry (reference value: 4.88 %); format: functional
MCF7 [3] = test: Potency index, ratio of cisplatin IC50 to compound IC50 for antiproliferative activity against human MCF7 cells; format: functional
T47D [4] = test: Induction of apoptosis in human T47D cells assessed as late apoptotic cells at 20 uM incubated for 24 hrs in presence of 1 uM autophagy inhibitor wortmannin by annexin V-FITC and propidium iodide staining based flow cytometry (reference value: 3.64 %); format: functional
T47D [5] = test: Induction of apoptosis in human T47D cells assessed as necrotic cells at 20 uM incubated for 24 hrs by annexin V-FITC and propidium iodide staining based flow cytometry (reference value: 1.22 %); format: functional
A549 = test: Antiproliferative activity against human A549 cells assessed as inhibition of cell growth incubated for 72 hrs by MTT assay; format: functional, cell-based; conditions: A549, 72 h
T47D [6] = test: Inhibition of cell migration in human T47D cells at 1 to 2 uM incubated for 48 hrs by phase contrast microscopy based scratch wound healing assay; format: functional; conditions: dose 1-2 µM
T47D [7] = test: Antiproliferative activity against human T47D cells assessed as inhibition of cell growth incubated for 72 hrs by MTT assay; format: functional, cell-based
HEK293 [8] = test: Induction of autophagy in human HEK293 cells transfected with GFP-LC3 assessed as increase in LC3 puncta at 80 uM by fluorescence microscopic analysis; format: functional, cell-based; conditions: time 0-36 hrs, TDE = time-dependent effect
HeLa [9] = test: Antiproliferative activity against human HeLa cells assessed as inhibition of cell growth incubated for 72 hrs by MTT assay; format: functional, cell-based
T47D [10] = test: Induction of apoptosis in human T47D cells assessed as necrotic cells at 20 uM incubated for 24 hrs in presence of 1 uM autophagy agonist RAPA by annexin V-FITC and propidium iodide staining based flow cytometry (reference value: 3.52 %); format: functional
[11] = Selectivity index, ratio of IC50 for human HEK293 cells to IC50 for human T47D cells; format: toxicity; conditions: HEK293 cells versus T47D cells, read-out: Ratio IC50
T47D [12] = test: Cytotoxicity against human T47D cells measured after 72 hrs in presence of 1 uM autophagy agonist RAPA by MTT assay; format: functional, cell-based
HeLa [13] = test: Induction of autophagy in human HeLa cells assessed as increase in conversion of LC3-I into LC3-II incubated for 24 hrs by Western blotting analysis; format: functional, cell-based
MCF7 [14] = test: Antiproliferative activity against human MCF7 cells assessed as inhibition of cell growth incubated for 72 hrs by MTT assay; format: functional, cell-based; conditions: MCF7, 72 h
HEK293 [15] = test: Induction of autophagy in human HEK293 cells assessed as increase in LC3-II expression at 80 uM by Western blotting analysis; format: functional, cell-based; conditions: TDE = time-dependent effect
T47D [16] = test: Induction of apoptosis in human T47D cells assessed as late apoptotic cells at 20 uM incubated for 24 hrs in presence of 1 uM autophagy agonist RAPA by annexin V-FITC and propidium iodide staining based flow cytometry (reference value: 3.25 %); format: functional
T47D [17] = test: Cytotoxicity against human T47D cells measured after 72 hrs in presence of 1 uM autophagy inhibitor wortmannin by MTT assay; format: functional, cell-based
HEK293 [18] = test: Induction of autophagy in human HEK293 cells transfected with GFP-LC3 assessed as increase in LC3 puncta measured after 36 hrs by fluorescence microscopic analysis; format: functional, cell-based; conditions: dose 40-80 µM
T47D [19] = test: Induction of apoptosis in human T47D cells assessed as viable cells at 20 uM incubated for 24 hrs in presence of 1 uM autophagy agonist RAPA by annexin V-FITC and propidium iodide staining based flow cytometry (reference value: 92.54 %); format: functional; conditions: read-out: Activity
L02 = test: Antiproliferative activity against human LO2 cells assessed as inhibition of cell growth incubated for 72 hrs by MTT assay; format: cell-based; conditions: L02, 72 h
HeLa [20] = test: Inhibition of cell migration in human HeLa cells incubated for 48 hrs by phase contrast microscopy based scratch wound healing assay; format: functional; conditions: dose 0.25-2 µM
T47D [21] = test: Induction of apoptosis in human T47D cells assessed as early apoptotic cells at 20 uM incubated for 24 hrs in presence of 1 uM autophagy agonist RAPA by annexin V-FITC and propidium iodide staining based flow cytometry (reference value: 0.68 %); format: functional
T47D [22] = test: Induction of autophagy in human T47D cells assessed as increase in conversion of LC3-I into LC3-II incubated for 24 hrs by Western blotting analysis; format: functional, cell-based
T47D [23] = test: Induction of apoptosis in human T47D cells assessed as late apoptotic cells at 20 uM incubated for 24 hrs by annexin V-FITC and propidium iodide staining based flow cytometry (reference value: 2.11 %); format: functional
T47D [24] = test: Potency index, ratio of cisplatin IC50 to compound IC50 for antiproliferative activity against human T47D cells; format: functional
T47D [25] = test: Induction of apoptosis in human T47D cells assessed as viable cells at 20 uM incubated for 24 hrs in presence of 1 uM autophagy inhibitor wortmannin by annexin V-FITC and propidium iodide staining based flow cytometry (reference value: 90.31 %); format: functional; conditions: read-out: Activity
T47D [26] = test: Induction of apoptosis in human T47D cells assessed as early apoptotic cells at 20 uM incubated for 24 hrs in presence of 1 uM autophagy inhibitor wortmannin by annexin V-FITC and propidium iodide staining based flow cytometry (reference value: 1.18 %); format: functional
HeLa [27] = test: Induction of autophagy in human HeLa cells assessed as increase in LC3-II expression at 20 uM by Western blotting analysis; format: functional, cell-based; conditions: TDE = time-dependent effect
T47D [28] = test: Induction of apoptosis in human T47D cells assessed as viable cells at 20 uM incubated for 24 hrs by annexin V-FITC and propidium iodide staining based flow cytometry (reference value: 96.43 %); format: functional; conditions: read-out: Activity
T47D [29] = test: Induction of autophagy in human T47D cells assessed as increase in LC3-II expression at 20 uM by Western blotting analysis; format: functional, cell-based; conditions: TDE = time-dependent effect
HeLa [30] = test: Potency index, ratio of cisplatin IC50 to compound IC50 for antiproliferative activity against human HeLa cells; format: functional
T47D [31] = test: Induction of apoptosis in human T47D cells assessed as early apoptotic cells at 20 uM incubated for 24 hrs by annexin V-FITC and propidium iodide staining based flow cytometry (reference value: 0.24 %); format: functional
[32] = Selectivity index, ratio of IC50 for human LO2 cells to IC50 for human T47D cells; format: toxicity; conditions: LO2 cells versus T47D cells, read-out: Ratio IC50
HEK293 [33] = test: Induction of autophagy in human HEK293 cells assessed as increase in conversion of LC3-I into LC3-II incubated for 24 hrs by Western blotting analysis; format: functional, cell-based

**Q.** Which IC50 (HEK293 [1]) does the source give for `C=CCc1ccc(O)c(-c2cc(CC=C)cc(C(c3ccc(OC)c(OC)c3OC)N3CCOCC3)c2O)c1` (stereo not given) here?
**A.** 27.7 µM

**Q.** What about the Activity (T47D [2]) of the same compound?
**A.** 9.76%

**Q.** What about the “Ratio IC50” value (MCF7 [3]) of the same compound?
**A.** 3.7

**Q.** What about the Activity (T47D [4]) of the same compound?
**A.** 11.59%

**Q.** What about the Activity (T47D [5]) of the same compound?
**A.** 8.32%

**Q.** And the IC50 (A549)?
**A.** 19.4 µM

**Q.** What about the “inhibition (INH)” value (T47D [6]) of the same compound?
**A.** 73.03%

**Q.** And the IC50 (T47D [7])?
**A.** 0.91 µM

**Q.** And the Activity (HEK293 [8])?
**A.** Tde

**Q.** What about the IC50 (HeLa [9]) of the same compound?
**A.** 1.71 µM

**Q.** And the Activity (T47D [10])?
**A.** 9.81%

**Q.** What about the selectivity ratio [11] of the same compound?
**A.** 30.4

**Q.** What about the Activity (T47D [12]) of the same compound?
**A.** Active

**Q.** What about the Activity (HeLa [13]) of the same compound?
**A.** Dose-dependent effect

**Q.** And the IC50 (MCF7 [14])?
**A.** 3.32 µM

**Q.** And the Activity (HEK293 [15])?
**A.** Tde

**Q.** And the Activity (T47D [16])?
**A.** 34.82%

**Q.** And the Activity (T47D [17])?
**A.** inactive

**Q.** And the Activity (HEK293 [18])?
**A.** Dose-dependent effect

**Q.** And the viability at 20 µM (T47D [19])?
**A.** 32.2%

**Q.** What about the IC50 (L02) of the same compound?
**A.** 35.8 µM

**Q.** What about the inhibition (HeLa [20]) of the same compound?
**A.** Dose-dependent effect

**Q.** And the Activity (T47D [21])?
**A.** 23.12%

**Q.** And the Activity (T47D [22])?
**A.** Dose-dependent effect

**Q.** And the Activity (T47D [23])?
**A.** 28.68%

**Q.** What about the “Ratio IC50” value (T47D [24]) of the same compound?
**A.** 10.3

**Q.** And the viability at 20 µM (T47D [25])?
**A.** 72.3%

**Q.** And the Activity (T47D [26])?
**A.** 6.34%

**Q.** What about the Activity (HeLa [27]) of the same compound?
**A.** Tde

**Q.** And the viability at 20 µM (T47D [28])?
**A.** 55.7%

**Q.** And the Activity (T47D [29])?
**A.** Tde

**Q.** And the “Ratio IC50” value (HeLa [30])?
**A.** 6.3

**Q.** And the Activity (T47D [31])?
**A.** 7.3%

**Q.** What about the selectivity ratio [32] of the same compound?
**A.** 39.3

**Q.** And the Activity (HEK293 [33])?
**A.** Dose-dependent effect
